The values below come from patent publication US10766899B2, “Methods for preparing substituted imidazo[4,5-b]pyrazines” (Cytokinetics, Inc., priority 2006, dated 2020).

Where “and” joins values, the source holds several entries; their conditions need not be identical. Equal values may be shown once. Some results are limits rather than exact numbers.

In the first test the test system is SKM MF. Nature of the test: SKM MF AC1.4: ATPase of skeletal sarcomeric proteins (actin, tropomyosin, troponin complex, myosin), PK/LDH coupled enzyme system. It counts as biochemical. To be noted: screen at pCa=6.5; † mean value, ‡ median value. As to the method:
For example, test compounds can be assayed in a highly parallel fashion by using multiwell plates by placing the compounds either individually in wells or testing them in mixtures. Assay components including the target protein complex, coupling enzymes and substrates, and ATP can then be added to the wells and the absorbance or fluorescence of each well of the plate can be measured with a plate reader.
In some embodiments, the method uses a 384 well plate format and a 25 μL reaction volume. A pyruvate kinase/lactate dehydrogenase coupled enzyme system (Huang T G and Hackney D D. (1994) J Biol Chem 269(23):16493-501) can be used to measure the rate of ATP hydrolysis in each well. As will be appreciated by those in the art, the assay components are added in buffers and reagents. The incubation periods can be optimized to give adequate detection signals over the background. The assay can be done in real time giving the kinetics of ATP hydrolysis which increases the signal to noise ratio of the assay.
Actin was purified by first preparing an ether powder of cardiac muscle (Zot H G and Potter J D. (1981) Preparative Biochemistry 11:381-395) as described below. Subsequently, actin was cycled between the filamentous and soluble state through rounds of centrifugation and dialysis (Spudich J A and Watt S. (1971) J. Biol. Chem. 246:4866-4871). It was stored in the filamentous state at 4° C.
Tropomyosin was extracted from the ether powder and separated from the other proteins based on pH dependent precipitations followed by successive ammonium sulfate cuts at 53% and 65% (Smillie L B. (1981) Methods Enzymol 85 Pt B:234-41). The troponins were isolated as an intact complex of TnC, TnT, and TnI. Ether powder is extracted in a high salt buffer. Successive ammonium sulfate cuts of 30% and 45% were done; the precipitate was solubilized by dialysis into a low salt buffer and then further purified on a DEAE Toyopearl column with a 25-350 mM KCl gradient.
Just prior to screening, the actin, tropomyosin, and troponin complex are mixed together in the desired ratio (e.g., 7:1:1) to achieve maximal calcium regulation of the actin filament. The screen is conducted at a pCa=6.5. This calcium concentration is in the physiological range during muscle contraction.
To measure the generation of ADP during the reaction, a pyruvate kinase/lactate dehydrogenase/NADH coupled enzyme system (PK/LDH) is added to the actin. The myosin is kept separately. The plates are read in real time so that kinetic curves are obtained. These compounds are in DMSO and were already spotted onto the bottoms of 384 well plates at 10 to 40 μg/ml final concentration.
• 1. Obtain ˜1000 g skeletal muscle, such as rabbit skeletal muscle. • 2. Grind twice; extract with 2 L solution A for 15 min while stirring; add 4 L cold H2O, filter through gauze; dilute with cold H2O to ionic strength of 0.04, (about 10-fold); let settle for 3 h; collect precipitate at 7,000 rpm in GSA rotor for 15 min. • 3. Disperse pellet in 220 ml solution B; dialyze overnight against 6 L solution C; slowly add ˜400 ml equal volume cold distilled H2O; stir for 30 min; centrifuge at 10,000 rpm for 10 min in GSA rotor. • 4. Centrifuge supernatant at 19,000 rpm for 1 h. • 5. Dilute supernatant to ionic strength of 0.04 (˜8-fold); let myosin settle overnight; collect about 5-6 L fluffy myosin precipitate by centrifuging at 10,000 rpm for 10 min in GSA rotor. • 6. Resuspend pellet in minimal volume of solution G; dialyze overnight against 2 L solution D; centrifuge at 19,000 rpm for 2 h, in cellulose nitrate tubes; puncture tubes and separate myosin from fat and insoluble pellet. • 7. Dilute supernatant to 5-10 mg/ml and dialyze against solution E extensively, load onto DEAE-sephadex column. • 8. […]
As for `CC[C@H](C)n1c(O)nc2ncc(Br)nc21` [(S)-6-bromo-1-sec-butyl-1H-imidazo[4,5-b]pyrazin-2-ol], the “SKM MF AC1.4” value came out at 0.8 µM.

In the case of `CC(C)=Cc1cnc2nc(O)n([C@@H](C)c3ccccc3)c2n1` [(S)-6-(2-methylprop-1-enyl)-1-(1-phenylethyl)-1H-imidazo[4,5-b]pyrazin-2-ol], the “SKM MF AC1.4” value was determined as 2.7 µM.

For the compound `CCC(CC)n1c(O)nc2ncc(N(C)C)nc21` [6-(dimethylamino)-1-(pentan-3-yl)-1H-imidazo[4,5-b]pyrazin-2-ol], the “SKM MF AC1.4” value is 2.2 µM and 2.79 µM.

On to `CSc1cnc2nc(O)n(C3CCCCC3)c2n1` [1-cyclohexyl-6-(methylthio)-1H-imidazo[4,5-b]pyrazin-2-ol], for which the “SKM MF AC1.4” value amounted to 13.9 µM.

Turning to `CC#Cc1cnc2nc(O)n(C(CC)CC)c2n1` [1-(pentan-3-yl)-6-(prop-1-ynyl)-1H-imidazo[4,5-b]pyrazin-2-ol], the “SKM MF AC1.4” value was greater than 49 µM.

With `CC[C@H](CN1CCOCC1)n1c(O)nc2ncc(Br)nc21` [(R)-6-bromo-1-(1-morpholinobutan-2-yl)-1H-imidazo[4,5-b]pyrazin-2-ol], the “SKM MF AC1.4” value was 0.3 µM.

As for `CC(C)C[C@H](CN1CCOCC1)n1c(O)nc2ncc(Br)nc21` [1-[(1R)-3-methyl-1-(morpholin-4-ylmethyl)butyl]-6-bromoimidazo[4,5-b]pyrazin-2-ol], the “SKM MF AC1.4” value was 0.5 µM.

Turning to `CC[C@@H](CO)n1c(O)nc2ncc(Br)nc21` [(S)-6-bromo-1-(1-hydroxybutan-2-yl)-1H-imidazo[4,5-b]pyrazin-2-ol], the “SKM MF AC1.4” value came to 19.1 µM.

Turning to `CCC(CC)n1c(O)nc2ncc(C(F)(F)F)nc21` [1-(pentan-3-yl)-6-(trifluoromethyl)-1H-imidazo[4,5-b]pyrazin-2-ol], the “SKM MF AC1.4” value is given as 10.4^‡ μM.

Turning to `C/C=C/c1cnc2nc(O)n(C3CCCCC3)c2n1` [(E)-1-cyclohexyl-6-(prop-1-enyl)-1H-imidazo[4,5-b]pyrazin-2-ol], the “SKM MF AC1.4” value stood at 6.1 µM.

For `C/C=C/c1cnc2nc(O)n([C@@H](C)c3ccccc3)c2n1` [(S,E)-1-(1-phenylethyl)-6-(prop-1-enyl)-1H-imidazo[4,5-b]pyrazin-2-ol], the “SKM MF AC1.4” value was 1.6 µM.

`CCC(CN1CCN(C)CC1)n1c(O)nc2ncc(Br)nc21` (stereo not drawn) [6-bromo-1-(1-(4-methylpiperazin-1-yl)butan-2-yl)-1H-imidazo[4,5-b]pyrazin-2-ol]: the “SKM MF AC1.4” value came to 14.9 µM.

With `CCC(CNC)n1c(O)nc2ncc(Br)nc21` (stereo not drawn) [6-bromo-1-(1-(methylamino)butan-2-yl)-1H-imidazo[4,5-b]pyrazin-2-ol], the “SKM MF AC1.4” value was found to be 45.7 µM.

For `C/C=C/c1cnc2nc(O)n(C(C)C)c2n1` [(E)-1-isopropyl-6-(prop-1-enyl)-1H-imidazo[4,5-b]pyrazin-2-ol], the “SKM MF AC1.4” value came out at 7.1 µM.

Turning to “1-(ethylpropyl)-6-(methylethyl)imidazo[4,5-b]pyrazin-2-ol”, the “SKM MF AC1.4” value came to 29.6 µM.

Consider “6-bromo-1-(propylbutyl)imidazo[4,5-b]pyrazin-2-ol”, for which the “SKM MF AC1.4” value came out at 0.7 µM.

With `CCC(C(=O)O)n1c(O)nc2ncc(Br)nc21` (stereo not drawn) [2-(6-bromo-2-hydroxy-1H-imidazo[4,5-b]pyrazin-1-yl)butanoic acid], the “SKM MF AC1.4” value was greater than 49 µM.

Consider “1-(ethylpropyl)-6-(1-methylpyrazol-4-yl)imidazo[4,5-b]pyrazin-2-ol”, for which the “SKM MF AC1.4” value worked out at 15 µM.

In the case of `CC(C)(C)n1c(O)nc2ncc(Br)nc21` [6-bromo-1-tert-butyl-1H-imidazo[4,5-b]pyrazin-2-ol], the “SKM MF AC1.4” value was 0.8 µM.

In the case of `C/C=C/c1cnc2nc(O)n(C(CC)CC)c2n1` [(E)-1-(pentan-3-yl)-6-(prop-1-enyl)-1H-imidazo[4,5-b]pyrazin-2-ol], the “SKM MF AC1.4” value was 0.4 µM.

As for `C/C=C\c1cnc2nc(O)n(C(C)C)c2n1` [(Z)-1-isopropyl-6-(prop-1-enyl)-1H-imidazo[4,5-b]pyrazin-2-ol], the “SKM MF AC1.4” value was found to be 4.6 µM.

As for “6-(1H-1,2,3-triazol-4-yl)-1-(ethylpropyl)imidazo[4,5-b]pyrazin-2-ol”, the “SKM MF AC1.4” value amounted to 46.64 µM.

For `CSc1cnc2nc(O)n([C@H](C)c3ccccc3)c2n1` [(R)-6-(methylthio)-1-(1-phenylethyl)-1H-imidazo[4,5-b]pyrazin-2-ol], the “SKM MF AC1.4” value was found to be 2.9 µM.

Regarding `CCC(CC)n1c(O)nc2ncc(C#N)nc21` [2-hydroxy-1-(pentan-3-yl)-1H-imidazo[4,5-b]pyrazine-6-carbonitrile], the “SKM MF AC1.4” value is 36.4 µM.

Consider `CCOc1cnc2nc(O)n([C@@H](C)c3ccccc3)c2n1` [(S)-6-ethoxy-1-(1-phenylethyl)-1H-imidazo[4,5-b]pyrazin-2-ol], for which the “SKM MF AC1.4” value came to 10.6 µM.

`C=Cc1cnc2nc(O)n([C@@H](C)c3ccccc3)c2n1` [(S)-1-(1-phenylethyl)-6-vinyl-1H-imidazo[4,5-b]pyrazin-2-ol]: the “SKM MF AC1.4” value came out at 2.4 µM.

As for `CCC(C(=O)N1CCOCC1)n1c(O)nc2ncc(Br)nc21` (stereo not drawn) [2-(6-bromo-2-hydroxy-1H-imidazo[4,5-b]pyrazin-1-yl)-1-morpholinobutan-1-one], the “SKM MF AC1.4” value is greater than 49 µM.

On to `CCC(COC)n1c(O)nc2ncc(Br)nc21` (stereo not drawn) [6-bromo-1-(1-methoxybutan-2-yl)-1H-imidazo[4,5-b]pyrazin-2-ol], for which the “SKM MF AC1.4” value came to 4.9 µM.

With `CCC(CN1CCN(C(=O)OC)CC1)n1c(O)nc2ncc(Br)nc21` (stereo not drawn) [methyl 4-(2-(6-bromo-2-hydroxy-1H-imidazo[4,5-b]pyrazin-1-yl)butyl)piperazine-1-carboxylate], the “SKM MF AC1.4” value is 0.9^† μM.

Regarding `Oc1nc2ncc(Br)nc2n1Cc1ccccc1` [1-benzyl-6-bromo-1H-imidazo[4,5-b]pyrazin-2-ol], the “SKM MF AC1.4” value amounted to 23.5 µM.

Take “6-ethyl-1-(ethylpropyl)imidazo[4,5-b]pyrazin-2-ol”: the “SKM MF AC1.4” value amounted to 8.58 µM.

In the case of `COc1cnc2nc(O)n([C@@H](C)c3ccccc3)c2n1` [(S)-6-methoxy-1-(1-phenylethyl)-1H-imidazo[4,5-b]pyrazin-2-ol], the “SKM MF AC1.4” value is 8.8 µM.

For `CC(C)(CN1CCOCC1)n1c(O)nc2ncc(Br)nc21` [6-bromo-1-(2-methyl-1-morpholinopropan-2-yl)-1H-imidazo[4,5-b]pyrazin-2-ol], the “SKM MF AC1.4” value is 16.4^‡ μM.

With `CCC(CC)n1c(O)nc2ncc(C)nc21` [6-methyl-1-(pentan-3-yl)-1H-imidazo[4,5-b]pyrazin-2-ol], the “SKM MF AC1.4” value was found to be 0.53 µM.

Turning to `C/C=C\c1cnc2nc(O)n(C(CC)CC)c2n1` [(Z)-1-(pentan-3-yl)-6-(prop-1-enyl)-1H-imidazo[4,5-b]pyrazin-2-ol], the “SKM MF AC1.4” value came to 0.6 µM.

With `C[C@@H](c1ccccc1)n1c(O)nc2ncc(Br)nc21` [(S)-6-bromo-1-(1-phenylethyl)-1H-imidazo[4,5-b]pyrazin-2-ol], the “SKM MF AC1.4” value was determined as 0.45 µM.

As for `CCCc1cnc2nc(O)n([C@@H](C)c3ccccc3)c2n1` [(S)-1-(1-phenylethyl)-6-propyl-1H-imidazo[4,5-b]pyrazin-2-ol], the “SKM MF AC1.4” value is 29.7 µM.

As to `CCC(CC)n1c(O)nc2nccnc21` [1-(pentan-3-yl)-1H-imidazo[4,5-b]pyrazin-2-ol], the “SKM MF AC1.4” value is given as 16.0^† μM.

The same test, now with this note: screen at pCa=6.5; † mean value, ‡ median value; listed as 1-(1,1-dimethyl-2-morpholin-4-ylethyl)-6-bromoimidazo[4,5-b]pyrazin-2-ol.
For the compound `CC(C)(CN1CCOCC1)n1c(O)nc2ncc(Br)nc21` [6-bromo-1-(2-methyl-1-morpholinopropan-2-yl)-1H-imidazo[4,5-b]pyrazin-2-ol], the “SKM MF AC1.4” value stood at 19.11 µM.

The same test, now with this note: screen at pCa=6.5; † mean value, ‡ median value; listed as 1-(ethylpropyl)-6-(trifluoromethyl)imidazo[4,5-b]pyrazin-2-ol.
As to `CCC(CC)n1c(O)nc2ncc(C(F)(F)F)nc21` [1-(pentan-3-yl)-6-(trifluoromethyl)-1H-imidazo[4,5-b]pyrazin-2-ol], the “SKM MF AC1.4” value worked out at 10.37 µM.

Staying with this test, now noted: screen at pCa=6.5; † mean value, ‡ median value; listed as 1-(pentan-3-yl)-6-(trifluoromethyl)-1H-imidazo[4,5-b]pyrazin-2(3H)-one.
In the case of `CCC(CC)n1c(O)nc2ncc(C(F)(F)F)nc21` [1-(pentan-3-yl)-6-(trifluoromethyl)-1H-imidazo[4,5-b]pyrazin-2-ol], the “SKM MF AC1.4” value is 10.4^‡ μM.

Still in this test, the particulars now being: screen at pCa=6.5; † mean value, ‡ median value; listed as 6-bromo-1-(2-methyl-1-morpholinopropan-2-yl)-1H-imidazo[4,5-b]pyrazin-2(3H)-one.
Consider `CC(C)(CN1CCOCC1)n1c(O)nc2ncc(Br)nc21` [6-bromo-1-(2-methyl-1-morpholinopropan-2-yl)-1H-imidazo[4,5-b]pyrazin-2-ol], for which the “SKM MF AC1.4” value is 16.4^‡ μM.
